Laboratory results published in patent US20230250077A1, “SULFONYLBENZAMIDE DERIVATIVE AND CONJUGATE THEREOF, PREPARATION METHOD THEREFOR AND USE THEREOF” (Jiangsu Hengrui Pharmaceuticals Co., Ltd., priority 2020, published 2023).
Entries after “also recorded” stand apart in the source; their conditions may differ. Marks after values point to notes of the source that are not given here.

Legend:
[1] = target: T1, BCL-xL (Homo sapiens, UniProt Q07817); assay: Binding activity for BCL-xL (HTRF, biotin-labeled BIM); conditions: His-tagged BCL-xL
T1 construct: purchased R&D 894-BX-050
Experimental: In vitro BCL-xL-binding activity was tested by the following method.
Reagents used in this experiment: His-tagged BCL-xL protein (R&D, Cat #894-BX-050); biotin-labeled BIM protein (R&D, Cat #3526/1); binding buffer (cisbio, Cat #62DLBDDF); assay buffer (cisbio, Cat #62DB1FDG); MAb anti-6His-Eu cryptate (cisbio, Cat #61HI2KLA); and affinity streptomycin linked XL665 (cisbio, Cat #611SAXLA).
The in vitro binding assay described below can determine the binding activity of test compounds for BCL-xL.
The test compounds were dissolved in dimethyl sulfoxide and diluted to gradient concentrations as required for the experiment, and the compounds at various concentrations formulated in dimethyl sulfoxide were subjected to a 100-fold dilution with a binding buffer. BCL-xL was diluted to the corresponding concentration with a binding buffer, and added to a white 384-well plate at 4 μL/well. Then the diluted test compound was added to the white 384-well plate at 2 μL/well. The plate was incubated at 25° C. for 1 h after the mixture was uniformly mixed. Biotin-labeled BIM protein was diluted to the corresponding concentration with a binding buffer, and added to a white 384-well plate at 4 μL/well. The plate was incubated at 25° C. for 2 h after the mixture was uniformly mixed. The MAb anti-6His-Eu cryptate and the affinity streptomycin linked XL665 were each diluted to the corresponding concentration with an assay buffer, and added to a white 384-well plate at 5 μL/well. The plate was incubated at 25° C. for 2-4 h after the mixture was uniformly mixed. The signal values were read with the HTRF program in a microplate reader (BMG Labtech, model: PHERAstar FS).

[2] = system: SD rats; assay: Toxicity test on SD rats by repeated intravenous administrations for 7 days; format: in vivo, rat; conditions: 1 mg/kg intravenously qd
Experimental: This experiment was performed to evaluate the toxicity of compound 9 and AZD4320 to SD rats by repeated intravenous administrations for 7 days.
30 SD rats, weighing about 180-200 g and aged 6-7 weeks, half male and half female, purchased from Zhejiang Vital River Laboratory Animal Technology Co., Ltd., SPF grade. Animal certification number: 200917Aazz0619000298 and 20200917Aazz0619000104. Production license number: SCXK (Zhejiang) 2019-0001.
Housing conditions: SPF grade, animals were housed in plastic and transparent rat cages, 2-3 per cage. The room temperature was 20-26° C. and the relative humidity was 40%-70%. The illumination was controlled in a 12/12 light/dark cycle. The granulated feed for mice was freely taken in an unlimited amount.
The rats were randomly divided into the following 3 groups: a vehicle control group, a compound 9-1 mg/kg group and a compound AZD4320-1 mg/kg group, with 6 rats in each group, half male and half female.
Dosage of the test sample for the 7-day toxicity test in rats: 1 mg/kg (qd), for 7 consecutive days. Administration route: intravenously, dosing volume: 10 mL/kg, dosing frequency and dosing period: daily in the morning for 7 days.
Vehicle: 1.5% DMA+98.5% (10% HS-15), wherein DMA is N,N-dimethylacetamide (Shanghai Titan Scientific Co., Ltd., Cat #01013630); and HS-15 is polyethylene glycol stearate 15 (Solutol HS15) (Shanghai Xietai Chemical Co., Ltd., Cat #50253404).
Hitachi 7100 automatic biochemical analyzer
Siemens advia 2120i automatic blood cell analyzer
Sysmex ca1500 automatic coagulation analyzer
The detection results were input and statistically processed by Excel of the computer.
Clinical symptoms, food intake and general visual observation results of dissection were not statistically calculated, and indexes such as body weight, organ weight and clinical examination were counted by using T-test.
SD rats were intravenously administered with 1 mg/kg compound 9 or 1 mg/kg AZD4320 at 5 mL/kg for 7 repeated days.

[3] = system: RS4;11 cells; assay: Inhibition of proliferation of RS4;11 cells (CellTiter-Glo); format: cell-based; conditions: Homo sapiens, 72 h, 3 days, read-out: Inhibitory activity IC50 (nM) for the proliferation of RS4;11 cells
Experimental: In vitro inhibitory activity for the proliferation of RS4;11 cells and NCI-H146 cells was tested by the following method.
Reagents used in this experiment: RPMI-1640 medium (HyCLone, Cat #SH30243018); fetal bovine serum (Gibco, Cat #10099-141); pancreatin (Gibco, Cat #25200-072); Cell Titer-Glo (Promega, Cat #G7571).
Materials used: RS4;11 cells (Nanjing Kebai Biotechnology Co., Ltd, Cat #CBP60641); and NCI-H146 cells (ATCC, Cat #HTB-173).
The in vitro cell proliferation assay described below can determine the inhibitory activity of the test compounds for the proliferation of RS4;11 cells and NCI-H146 cells.
RS4;11 cells (or NCI-H146 cells) were cultured in an RPMI-1640 culture medium containing 10% FBS, and were passaged for 2-3 times a week in a passage ratio of 1:3 or 1:5. During passage, the cells were transferred to a centrifuge tube, and centrifuged at 1200 rpm for 3 min. The supernatant was discarded, and fresh culture medium was added to resuspend the cells. 90 μL of cell suspension was added to a 96-well cell culture plate, wherein RS4;11 cells and NCI-H146 cells were added at a density of 2.22×10^5 cells/mL. Only 100 μL of complete medium (RPMI-1640 medium containing 10% FBS) was added to the periphery of the 96-well plate. The plate was incubated in an incubator for 24 h (37° C., 5% CO2).
The test sample was diluted to a proper concentration gradient with dimethyl sulfoxide as required for the experiment. 5 μL of the solution of the test compound prepared in a gradient concentration was added to 95 μL of fresh culture medium and mixed uniformly, and then 10 μL of the culture medium containing the above compound was added to a cell culture plate. The cell culture plate was incubated in an incubator for 3 days (37° C., 5% CO2). 50 μL of CellTiter-Glo reagent was added into each well of the 96-well cell culture plate. The plate was let stand for 5-10 min away from the light at room temperature. The chemiluminescence signals were read by a microplate reader (BMG Labtech, model: PHERAstar FS) and the data were processed by GraphPad software.

T1 sequence (Q07817 whole entry): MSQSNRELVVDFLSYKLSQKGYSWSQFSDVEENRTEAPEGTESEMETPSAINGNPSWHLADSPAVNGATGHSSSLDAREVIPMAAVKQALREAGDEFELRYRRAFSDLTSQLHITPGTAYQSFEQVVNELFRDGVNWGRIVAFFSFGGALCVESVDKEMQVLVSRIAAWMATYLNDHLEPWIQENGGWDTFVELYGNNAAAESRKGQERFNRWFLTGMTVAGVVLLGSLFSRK

SMILES | Ki [1] [nM] | Clinical observation of the animals during treatment [2] | PLT (10^9/L) [2] | Effect on platelets (in words) ([2]; vs vehicle control, listed as compound 9, 1 mg/kg) | IC50 [3] [nM]
O=C(NS(=O)(=O)c1ccc(N[C@@H](CSc2ccccc2)C[C@@H]2CCCN2CCO)c(S(=O)(=O)C(F)(F)F)c1)c1ccc(N2CCC([C@@H](O)c3ccccc3-c3ccc(Cl)cc3)CC2)cc1 [Example 2-9, 4-(4-((R)-(4′-chloro-[1,1′-biphenyl]-2-yl)(hydroxy)methyl)piperidin-1-yl)-N-((4-(((R)-1-((S)-1-(2-hydroxyethyl)pyrrolidin-2-yl)-3-(phenylthio)propan-2-yl)amino)-3-((trifluoromethyl)sulfonyl)phenyl)sulfonyl)benzamide] | 0.07 | No significant abnormalities | 1,258.67* 10^9/L | slightly reduced but within the background normal range; also recorded: reduces platelets less than the positive control group | 1.8
CN(CCO)CC[C@H](CSc1ccccc1)Nc1ccc(S(=O)(=O)NC(=O)c2ccc(N3CCC([C@@H](O)c4ccccc4-c4ccc(C(F)(F)F)cc4)CC3)cc2)cc1S(=O)(=O)C(F)(F)F [Example 2-10, 4-(4-((R)-hydroxy(4′-(trifluoromethyl)-[1,1′-biphenyl]-2-yl)methyl)piperidin-1-yl)-N-((4-(((R)-4-((2-hydroxyethyl)(methyl)amino)-1-(phenylthio)butan-2-yl)amino)-3-((trifluoromethyl)sulfonyl)phenyl)sulfonyl)benzamide] | 0.07 |  |  |  | 1
